Measurements from patent US20200061026A1, “METHODS AND COMPOSITIONS FOR PREVENTING VECTOR-BORNE DISEASE TRANSMISSION” (The Scripps Research Institute, priority 2016, published 2020).
pIC50: −log10 of the molar value. Like-named read-outs stand apart in the source and are kept apart here.

Columns and labels:
[1] = Hepatocyte stability assay, cynomolgus monkey; assay type: in vitro ADME; settings: hepatocytes
Description: (§1) Example 7. In Vitro Metabolic Stability of Isoxazoline Compounds in cd-1 Mouse, sd Rat, Beagle Dog, Cynomolgus Monkey and Human Cryopreserved Hepatocytes
(§2) Isoxazoline compounds (at 1 μM) were incubated with cryopreserved hepatocytes (0.5×10^6 cells per mL) in duplicates (n=2) at 37° C. using 96-well plate format.
(§3) Time points were 0, 15, 30, 60 and 90 minutes in separate plates and medium control samples without cells at 0 and 90 minutes were also incubated. At each time point the reaction was stopped by adding organic solution containing internal standard (IS).
(§4) Positive controls 7-ethoxycoumarin and 7-hydroxycoumarin were included in parallel.
(§5) The samples were analyzed by LC-MS/MS. Disappearance of the test compound was assessed based on peak area ratios of analyte/IS (no standard curve).
(§6) Intrinsic clearance and t½ values were then calculated.

[2] = Hepatocyte stability assay, mouse; assay type: in vitro ADME
Description: as §1, §2, §3, §4, §5, §6

CYP 2D6 = biological target: T1, CYP 2D6 (Homo sapiens, UniProt P10635); experiment: Reversible CYP inhibition in human liver microsomes, CYP 2D6; assay type: in vitro ADME; settings: bufuralol, read-out: Cyp microsome IC50, 2D6
T1 construct: individual CYPs in a pool of human liver microsomes; from tissue; host or cells: pooled human liver microsomes
Description: (§7) Reversible inhibition of cytochrome P450s (CYPs) in human liver microsomes was tested using prototypical, isoform-selective activity assays for individual CYPs in a pool of human liver microsomes (i.e., testosterone for CYP 3A4, phenacetin for CYP 1A2, bufuralol for CYP 2D6, S-mephenytoin for CYP 2C19, and diclofenac for CYP 2C9). The assay provides 8-point IC50 determinations in the range of 0.010 to 50 μM drug concentrations for major isoforms of CYP450.

CYP 2C19 = biological target: T2, CYP 2C19 (Homo sapiens, UniProt P33261); experiment: Reversible CYP inhibition in human liver microsomes, CYP 2C19; assay type: in vitro ADME; settings: S-mephenytoin, read-out: Cyp microsome IC50, 2C19
T2 construct: individual CYPs in a pool of human liver microsomes; from tissue; host or cells: pooled human liver microsomes
Description: as §7

[3] = Hepatocyte stability assay, human; assay type: in vitro ADME; settings: hepatocytes
Description: as §1, §2, §3, §4, §5, §6

[4] = Plasma protein binding (equilibrium dialysis), mouse; assay type: in vitro ADME; settings: 2 μM
Description: Frozen plasma (EDTA-K2 as anticoagulant) pooled from multiple individuals of various species was used as a test matrix. The plasma was purchased from commercial vendors or prepared in house from animals. Warfarin was used as a positive control.
Isoxazoline compounds were spiked into the blank matrix at the final concentration of 2 μM.
A 150 μL aliquot of matrix sample was added to one side of the chamber in a 96-well equilibrium dialyzer plate (HTD dialysis) and an equal volume of dialysis buffer was added to the other side of the chamber. An aliquot of matrix sample was harvested before the incubation and used as T0 samples for recovery calculation. Triplicate incubations were performed.
The dialyzer plate was placed in a humidified incubator and rotated slowly for 4 hours at 37° C. After incubation, samples were taken from the matrix side as well as the buffer side. The plasma sample was matched with equal volume of blank buffer; and buffer samples were matched with equal volume of blank plasma. The matrix-matched samples were quenched with a stop solution containing internal standard.
The samples were analyzed by LC-MS/MS.
Then, % bound fraction at 4 hours (% bound=1−% unbound) and % recovery in incubates at 4 hours were calculated.
The stability of compounds in mouse (ms), rat (r), dog (d), cynomolgus monkey (cy), and human (hu) plasma is shown in Table 10 by the percentages of compounds remaining at two hours.

[5] = Bidirectional permeability in Caco-2 cells; assay type: in vitro ADME, human; settings: for Papp B→A at 2 h, 2 μM / Papp A→B at 2 h, 2 μM: human, Caco-2, pH 7.4
Description: The suitability of the compound for oral dosing was evaluated via a Caco-2 permeability assay to predict human intestinal permeability and to investigate drug efflux. Afoxolaner racemate was evaluated for P-glycoprotein (PGP) inhibition in a MDCK permeability assay.
Caco-2 Cells (obtained from ATCC) were seeded onto PET membranes of 96-well Insert Plates for 21-28 days for confluent cell monolayer formation. The integrity of the monolayer was verified by performing Lucifer yellow rejection assay. The quality of the monolayer was also verified by measuring the unidirectional (A→B) permeability of fenoterol/nadolol (low permeability marker), propranolol/metoprolol (high permeability marker) and Bi-directional permeability of Digoxin (a P-glycoprotein substrate marker) in duplicate wells.
Standard assay conditions are as follows: each test compound was tested at 2 μM (DMSO≤1%) with two replicates; bi-directional transport was evaluated (A→B and B→A); incubation was for 2 hours with a single time point; the transport buffer contained HBSS with 10 mM HEPES at pH7.40±0.05; and incubation occurred at 37±1° C., 5% CO2 and relatively saturated humidity. The dosing solution was spiked and mixed with transport buffer and Stop Solution (containing an appropriate internal standard (IS)) to provide the T0 sample. At the end of incubation, sample solutions from both donor and receiver wells were immediately mixed with Stop Solution. All samples, including T0 samples, donor samples, and receiver samples, were analyzed using LC/MS/MS. Concentrations of test compound are expressed as peak area ratio of analytes versus IS without a standard curve.

CYP 3A4 = biological target: T3, CYP 3A4 (Homo sapiens, UniProt P08684); experiment: Reversible CYP inhibition in human liver microsomes, CYP 3A4; assay type: in vitro ADME
T3 construct: individual CYPs in a pool of human liver microsomes; from tissue; host or cells: pooled human liver microsomes
Description: as §7

CYP 1A2 = biological target: T4, CYP 1A2 (Homo sapiens, UniProt P05177); experiment: Reversible CYP inhibition in human liver microsomes, CYP 1A2; assay type: in vitro ADME
T4 construct: individual CYPs in a pool of human liver microsomes; from tissue; host or cells: pooled human liver microsomes
T4 sequence (P05177 1-516): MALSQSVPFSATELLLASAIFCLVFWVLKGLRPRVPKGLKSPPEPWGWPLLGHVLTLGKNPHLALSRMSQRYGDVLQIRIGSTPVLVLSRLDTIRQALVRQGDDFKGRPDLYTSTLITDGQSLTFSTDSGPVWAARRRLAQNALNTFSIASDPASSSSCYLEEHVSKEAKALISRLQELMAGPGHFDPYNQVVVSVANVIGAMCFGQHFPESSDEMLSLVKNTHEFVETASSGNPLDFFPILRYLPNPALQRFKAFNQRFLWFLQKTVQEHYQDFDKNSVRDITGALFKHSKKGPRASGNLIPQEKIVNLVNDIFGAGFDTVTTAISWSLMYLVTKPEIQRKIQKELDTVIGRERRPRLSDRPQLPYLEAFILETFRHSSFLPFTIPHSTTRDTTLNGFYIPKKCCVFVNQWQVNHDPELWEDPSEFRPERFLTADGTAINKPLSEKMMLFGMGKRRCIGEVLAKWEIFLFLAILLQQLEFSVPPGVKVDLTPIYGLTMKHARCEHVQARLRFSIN
Description: as §7

[6] = Lipophilicity, ALogD at pH 7.4; assay type: physicochemical
Solubility at pH 6.8 = assay type: physicochemical; settings: pH 6.8, aqueous buffer
[7] = cynomolgus monkey (cy), 1 μM, read-out: Hepatocyte stability (t½)
[8] = CD-1, hepatocytes, mouse (ms), 1 μM, read-out: Hepatocyte stability (t½)
[9] = human (hu), 1 μM, read-out: Hepatocyte stability (t½)
[10] = B→A, 2 μM, 2 hours, read-out: Caco2 B-A

T1 sequence (P10635 whole entry): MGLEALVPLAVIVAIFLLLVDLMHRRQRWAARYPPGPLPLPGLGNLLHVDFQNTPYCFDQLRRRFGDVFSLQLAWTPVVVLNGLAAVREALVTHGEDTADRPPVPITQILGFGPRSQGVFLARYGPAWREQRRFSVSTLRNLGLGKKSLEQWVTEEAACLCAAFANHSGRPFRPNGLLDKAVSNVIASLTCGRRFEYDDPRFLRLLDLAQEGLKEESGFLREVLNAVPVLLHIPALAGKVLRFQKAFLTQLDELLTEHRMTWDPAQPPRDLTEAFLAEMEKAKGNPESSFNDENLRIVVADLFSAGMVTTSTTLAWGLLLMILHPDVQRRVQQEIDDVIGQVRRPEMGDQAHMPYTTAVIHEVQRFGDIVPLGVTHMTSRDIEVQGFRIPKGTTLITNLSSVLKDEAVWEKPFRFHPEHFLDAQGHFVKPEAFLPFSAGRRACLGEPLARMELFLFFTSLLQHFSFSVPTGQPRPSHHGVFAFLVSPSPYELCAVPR
T3 sequence (P08684 whole entry): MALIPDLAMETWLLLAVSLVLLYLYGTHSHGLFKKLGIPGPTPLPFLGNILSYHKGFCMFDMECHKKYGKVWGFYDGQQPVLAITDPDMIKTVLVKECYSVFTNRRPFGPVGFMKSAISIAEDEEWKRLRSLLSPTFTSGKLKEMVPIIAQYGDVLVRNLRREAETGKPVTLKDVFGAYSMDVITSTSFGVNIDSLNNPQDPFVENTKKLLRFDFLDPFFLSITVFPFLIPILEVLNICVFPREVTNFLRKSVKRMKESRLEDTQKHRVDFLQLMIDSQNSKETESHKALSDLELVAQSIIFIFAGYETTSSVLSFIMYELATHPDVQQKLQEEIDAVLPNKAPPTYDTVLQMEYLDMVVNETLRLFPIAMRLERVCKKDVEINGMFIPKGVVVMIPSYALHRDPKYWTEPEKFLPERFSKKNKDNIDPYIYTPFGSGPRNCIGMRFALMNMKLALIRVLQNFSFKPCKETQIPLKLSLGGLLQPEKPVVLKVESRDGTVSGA
T2 sequence (P33261 whole entry): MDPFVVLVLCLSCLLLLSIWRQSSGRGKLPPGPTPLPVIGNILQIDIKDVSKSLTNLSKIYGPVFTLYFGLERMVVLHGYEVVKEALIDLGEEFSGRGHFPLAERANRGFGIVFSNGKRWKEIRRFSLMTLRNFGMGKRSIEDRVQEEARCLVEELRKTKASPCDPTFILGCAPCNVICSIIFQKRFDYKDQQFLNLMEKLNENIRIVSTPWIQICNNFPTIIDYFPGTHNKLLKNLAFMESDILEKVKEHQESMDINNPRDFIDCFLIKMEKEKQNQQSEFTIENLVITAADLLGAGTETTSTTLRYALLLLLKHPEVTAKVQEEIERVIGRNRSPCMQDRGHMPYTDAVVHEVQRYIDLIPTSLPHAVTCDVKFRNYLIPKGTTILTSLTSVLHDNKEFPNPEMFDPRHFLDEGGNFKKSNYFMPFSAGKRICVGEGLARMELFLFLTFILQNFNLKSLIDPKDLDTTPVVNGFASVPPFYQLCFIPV

| SMILES | half-life at 1 μM [1, 7] [h] | half-life at 1 μM [2, 8] [h] | pIC50 (CYP 2D6) | pIC50 (CYP 2C19) | half-life at 1 μM [3, 9] [h] | Plasma protein % binding ([4]; mouse (ms), 4 hours) | Papp B→A at 2 h, 2 μM [5, 10] [×10⁻⁶ cm/s] | pIC50 (CYP 3A4) | pIC50 (CYP 1A2) | ALogD (pH 7.4) [6] | solubility (Solubility at pH 6.8; read-out: Solubility (pH 6.8)) [µM] | also measured |
| --- | --- | --- | --- | --- | --- | --- | --- | --- | --- | --- | --- | --- |
| O=C(CNC(=O)c1ccc(C2=NO[C@](c3cc(Cl)cc(C(F)(F)F)c3)(C(F)(F)F)C2)c2ccccc12)NCC(F)(F)F (racemic) [Afoxolaner, afoxolaner] | > 3.62 | > 3.62 | < 4.30 | 5.51 | > 3.62 | 97.8 (ms), % | 0.24 | < 4.30 | < 4.30 | 6.1 | < 1 | Caco2 A-B ([5]; A→B, 2 μM, 2 hours): <0.0003/ 10^−6 cm/sec |
| O=C(CNC(=O)c1ccc(C2=NO[C@@](c3cc(Cl)cc(C(F)(F)F)c3)(C(F)(F)F)C2)c2ccccc12)NCC(F)(F)F [(S)-afoxolaner] | 0.833 | 1.07 | 4.72 | 5.96 | 1.1 | >99.9 (ms, r, hu), % | 0.7 | < 4.30 | < 4.30 | 6.1 | < 1 | Papp A→B at 2 h, 2 μM ([5]; A→B, 2 μM, 2 hours, read-out: Caco2 A-B): < 0.2 ×10⁻⁶ cm/s |
| O=C(CNC(=O)c1ccc(C2=NO[C@@](c3cc(Cl)cc(Cl)c3)(C(F)(F)F)C2)c2ccccc12)NCC(F)(F)F [(S)-4-(5-(3,5-dichlorophenyl)-5-(trifluoromethyl)-4,5-dihydroisoxazol-3-yl)-N-(2-oxo-2-((2,2,2-trifluoroethyl)amino)ethyl)-1-naphthamide] | – | – | 4.76 | 6.22 | – | – | – | < 4.30 | – | 5.8 | – | half-life at 1 μM ([1]; cynomolgus monkey): 0.7 h; half-life at 1 μM ([2]; CD-1, mouse, hepatocytes): 0.983 h; half-life at 1 μM ([3]; human): 1.05 h; Plasma protein % binding ([4]; mouse, 4 h): >99.9% (ms, r, d, hu); Papp A→B at 2 h, 2 μM [5]: < 0.29 ×10⁻⁶ cm/s; Papp B→A at 2 h, 2 μM [5]: 0.56 ×10⁻⁶ cm/s; pIC50 (CYP 1A2; human liver microsomes, phenacetin, read-out: Cyp microsome IC50, 1A2): < 4.30; solubility (Solubility at pH 6.8): < 1 µM |
